Results on 34 molecules are retold here after US9145392B2, “Imidazole amines as modulators of kinase activity” (Merck Patent GmbH, priority 2011, dated 2015).

The target in experiment [1] is P70S6K (T412E mutant) (Homo sapiens (Human), UniProt P23443, T412E). Put plainly: P70S6K enzyme assay. In kind it is biochemical. The following applies: read-out: IC50 p70S6K. In outline:
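Read-out is the substrate/phosphopeptide ratio from mobility-shift electrophoresis on a LabChip 3000.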

Experiment [2] deals with His-AKT (Full Length) (Homo sapiens (Human), UniProt P31749). Put plainly: AKT enzyme assay. The class given is biochemical. Particulars: read-out: IC50 AKT.
Sequence of His-AKT (Full Length) (P31749 whole entry): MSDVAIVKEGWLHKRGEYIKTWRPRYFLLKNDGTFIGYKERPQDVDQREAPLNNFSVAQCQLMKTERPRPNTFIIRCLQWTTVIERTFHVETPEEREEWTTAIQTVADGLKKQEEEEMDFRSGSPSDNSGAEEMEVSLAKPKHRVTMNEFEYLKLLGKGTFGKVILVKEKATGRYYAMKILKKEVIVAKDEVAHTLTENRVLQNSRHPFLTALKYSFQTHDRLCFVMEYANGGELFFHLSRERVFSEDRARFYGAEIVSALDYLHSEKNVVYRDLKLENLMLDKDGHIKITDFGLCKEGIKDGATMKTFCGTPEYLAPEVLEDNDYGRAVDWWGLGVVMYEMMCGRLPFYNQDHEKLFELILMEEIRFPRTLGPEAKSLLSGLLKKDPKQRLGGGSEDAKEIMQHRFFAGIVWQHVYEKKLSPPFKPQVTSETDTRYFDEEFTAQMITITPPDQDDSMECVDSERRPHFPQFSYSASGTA

Sequence of P70S6K (T412E mutant) (P23443 whole entry T412E): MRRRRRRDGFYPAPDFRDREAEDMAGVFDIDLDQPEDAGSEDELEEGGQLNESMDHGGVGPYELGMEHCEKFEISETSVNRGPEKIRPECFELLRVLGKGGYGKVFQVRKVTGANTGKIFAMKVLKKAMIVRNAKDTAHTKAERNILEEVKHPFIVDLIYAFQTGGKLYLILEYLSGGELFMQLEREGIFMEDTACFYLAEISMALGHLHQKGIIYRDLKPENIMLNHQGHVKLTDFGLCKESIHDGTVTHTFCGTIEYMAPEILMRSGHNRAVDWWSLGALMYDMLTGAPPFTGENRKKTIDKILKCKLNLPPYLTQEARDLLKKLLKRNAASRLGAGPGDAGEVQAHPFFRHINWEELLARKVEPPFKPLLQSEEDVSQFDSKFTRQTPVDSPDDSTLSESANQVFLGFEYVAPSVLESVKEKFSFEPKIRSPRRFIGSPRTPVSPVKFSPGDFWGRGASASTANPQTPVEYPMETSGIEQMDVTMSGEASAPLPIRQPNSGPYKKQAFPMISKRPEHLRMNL

In the case of `COc1ccc(-c2cn(CCN3CCC3)c(C3CCN(c4ncnc(N)c4C#N)CC3)n2)cc1F` [Compound 321], the figures for the IC50 in experiment [1] and in experiment [2] were 2.6 nM and 59 nM, respectively.
On to `CCc1c(N)ncnc1N1CCC(c2nc(-c3cccc(C(F)(F)F)c3)cn2CCN2CCC2)CC1` [Compound 277], for which the IC50 (commonly the concentration that inhibits the measured activity by half) was 3.2 nM in experiment [1] and 18 nM in experiment [2].
In the case of `CCc1c(N)ncnc1N1CCC(c2nc(-c3ccc(F)c(C(F)(F)F)c3)cn2CC2CNC2)CC1` [Compound 151, 6-(4-(1-(azetidin-3-ylmethyl)-4-(4-fluoro-3-(trifluoromethyl)phenyl)-1H-imidazol-2-yl)piperidin-1-yl)-5-ethylpyrimidin-4-amine], the IC50 in experiment [1] is 2.2 nM; in experiment [2] it was 19 nM.
For `Nc1ncnc(N2CCC(c3nc(-c4ccnc(C(F)(F)F)c4)cn3CCN3CCC3)CC2)c1Br` [Compound 126, 6-(4-(1-(2-(azetidin-1-yl)ethyl)-4-(2-(trifluoromethyl)pyridin-4-yl)-1H-imidazol-2-yl)piperidin-1-yl)-5-bromopyrimidin-4-amine], in that order: 0.5 nM and 2.2 nM.
On to `Cn1cc(-c2ccc(F)c(C(F)(F)F)c2)nc1C1CCN(c2ncnc(N)c2Br)CC1` [Compound 1, 5-Bromo-6-{4-[4-(4-fluoro-3-trifluoromethyl-phenyl)-1-methyl-1H-imidazol-2-yl]-piperidin-1-yl}-pyrimidin-4-ylamine], for which the IC50 in experiment [1] was found to be 2.1 nM; in experiment [2], 66 nM.
For `CNCCn1cc(-c2ccc(F)c(C(F)(F)F)c2)nc1C1CCN(c2ncnc(N)c2C#N)CC1` [Compound 374, 4-Amino-6-{4-[4-(4-fluoro-3-trifluoromethyl-phenyl)-1-(2-methylamino-ethyl)-1H-imidazol-2-yl]-piperidin-1-yl}-pyrimidine-5-carbonitrile], in that order: 0.4 nM and 1.5 nM.
In the same order, the values of `CC(C)NCCn1cc(-c2ccc(F)c(C(F)(F)F)c2)nc1C1CCN(c2ncnc(N)c2C(N)=O)CC1` [Compound 370, 4-Amino-6-{4-[4-(4-fluoro-3-trifluoromethyl-phenyl)-1-(2-isopropylamino-ethyl)-1H-imidazol-2-yl]-piperidin-1-yl}-pyrimidine-5-carboxylic acid amide] are 0.9 nM and 2.5 nM.
In the case of `C=Cc1c(N)ncnc1N1CCC(c2nc(-c3ccc(F)c(C(F)(F)F)c3)cn2CCN2CCC2)CC1` [Compound 220], the IC50 in experiment [1] was determined as 2.6 nM; in experiment [2], 4.2 nM.
Take `Cn1cc(-c2ccc(F)c(C(F)(F)F)c2)nc1C1CCN(c2ncnc(N)c2-c2ccc(N)nc2)CC1` [Compound 40, 5-(6-Amino-pyridin-3-yl)-6-{4-[4-(4-fluoro-3-trifluoromethyl-phenyl)-1-methyl-1H-imidazol-2-yl]-piperidin-1-yl}-pyrimidin-4-ylamine]: the half-inhibitory concentration (IC50) in experiment [1] was determined as 2.3 nM; in experiment [2], 2700 nM.
For `CCc1c(N)ncnc1N1CCC(c2nc(-c3ccc(C(F)(F)F)c(F)c3)cn2CCN2CCCC(F)C2)CC1` (centres unmarked) [Compound 250], in that order: 5.7 nM and 210 nM.
As to `CN(C)CCn1cc(-c2ccc(F)c(C(F)(F)F)c2)nc1C1CCN(c2ncnc(N)c2Br)CC1` [Compound 67, 5-Bromo-6-{4-[1-(2-dimethylamino-ethyl)-4-(4-fluoro-3-trifluoromethyl-phenyl)-1H-imidazol-2-yl]-piperidin-1-yl}-pyrimidin-4-ylamine], the IC50 in experiment [1] stood at 2.2 nM; in experiment [2], 9.3 nM.
Consider `Nc1ncnc(N2CCC(c3nc(-c4ccc(C(F)(F)F)c(F)c4)cn3CCN3CCC3)CC2)c1C1CCC1` [Compound 280], for which the IC50 was found to be 6 nM in experiment [1] and 7.3 nM in experiment [2].
Turning to `CCc1c(N)ncnc1N1CCC(c2nc(-c3ccc(F)c(C(F)(F)F)c3)cn2CCN)CC1` [Compound 139, 6-(4-(1-(2-aminoethyl)-4-(4-fluoro-3-(trifluoromethyl)phenyl)-1H-imidazol-2-yl)piperidin-1-yl)-5-ethylpyrimidin-4-amine], the IC50 in experiment [1] is 1.1 nM; in experiment [2], 6.6 nM.
For `Nc1ncnc(N2CCC(c3nc(-c4ccc(F)c(C(F)(F)F)c4)cn3CCN3CCCC3)CC2)c1-c1ccc(F)cc1` [Compound 57], in that order: 8.2 nM and 140 nM.
With `CCOc1c(N)ncnc1N1CCC(c2nc(-c3ccc(F)c(C(F)(F)F)c3)cn2CCNC(C)C)CC1` [Compound 398, 5-Ethoxy-6-{4-[4-(4-fluoro-3-trifluoromethyl-phenyl)-1-(2-isopropylamino-ethyl)-1H-imidazol-2-yl]-piperidin-1-yl}-pyrimidin-4-ylamine], the IC50 in experiment [1] was determined as 2.1 nM; in experiment [2], 1.5 nM.
Consider `NC(=O)c1c(N)ncnc1N1CCC(c2nc(-c3ccc(F)c(F)c3)cn2CCN2CCC2)CC1` [Compound 328], for which the figures for the IC50 in experiment [1] and in experiment [2] were 8.1 nM and 140 nM, respectively.
Turning to `CCc1c(N)ncnc1N1CCC(c2nc(-c3ccc(F)c(Cl)c3)cn2CCN2CCCC2)CC1` [Compound 252], the IC50 stood at 0.2 nM in experiment [1] and 0.4 nM in experiment [2].
Regarding `CNCCn1cc(-c2ccnc(C(F)(F)F)c2)nc1C1CCN(c2ncnc(N)c2C#N)CC1` [Compound 169, 4-amino-6-(4-(1-(2-(methylamino)ethyl)-4-(2-(trifluoromethyl)pyridin-4-yl)-1H-imidazol-2-yl)piperidin-1-yl)pyrimidine-5-carbonitrile], the results for the IC50 in experiment [1] and in experiment [2] were 1.3 nM and 1.7 nM, respectively.
Regarding `Cc1cc(-c2cn(CC3CNC3)c(C3CCN(c4ncnc(N)c4C(C)C)CC3)n2)ccc1F` [Compound 189, 6-(4-(1-(azetidin-3-ylmethyl)-4-(4-fluoro-3-methylphenyl)-1H-imidazol-2-yl)piperidin-1-yl)-5-isopropylpyrimidin-4-amine], the values for the IC50 in experiment [1] and in experiment [2] were 1.1 nM and 4.5 nM, respectively.
With `NC(=O)c1c(N)ncnc1N1CCC(c2nc(C3CCCCC3)cn2CCN2CCC2)CC1` [Compound 80, 4-Amino-6-{4-[1-(2-azetidin-1-yl-ethyl)-4-cyclohexyl-1H-imidazol-2-yl]-piperidin-1-yl}-pyrimidine-5-carboxylic acid amide], the IC50 was found to be 95 nM in experiment [1] and 1400 nM in experiment [2].
As for `N#Cc1c(N)ncnc1N1CCC(c2nc(-c3cccc(C(F)(F)F)c3)cn2CCN2CCCC2)CC1` [Compound 310], the values for the concentration for half-maximal inhibition (IC50) in experiment [1] and in experiment [2] were 2.3 nM and 7.6 nM, respectively.
With `N#Cc1c(N)ncnc1N1CCC(c2nc(-c3ccc(F)c(Cl)c3)cn2CCN2CCCC2)CC1` [Compound 307], the concentration for half-maximal inhibition (IC50) in experiment [1] worked out at 0.8 nM; in experiment [2], 1.5 nM.
Regarding `CN(C)CCn1cc(-c2ccc(F)c(C(F)(F)F)c2)nc1C1CCN(c2ncnc(N)c2-c2ccc(F)cc2)CC1` [Compound 68, 6-{4-[1-(2-Dimethylamino-ethyl)-4-(4-fluoro-3-trifluoromethyl-phenyl)-1H-imidazol-2-yl]-piperidin-1-yl}-5-(4-fluoro-phenyl)-pyrimidin-4-ylamine], the figures for the IC50 in experiment [1] and in experiment [2] were 7.3 nM and 230 nM, respectively.
In the case of `N#Cc1c(N)ncnc1N1CCC(c2nc(-c3cccc(Cl)c3)cn2CCN2CCCC2)CC1` [Compound 311], the IC50 came out at 2.3 nM in experiment [1] and 8.4 nM in experiment [2].
Turning to `Nc1cc(N2CCC(c3nc(-c4cccc(F)c4)cn3CCN3CCCC3)CC2)ncn1` [Compound 244], the IC50 in experiment [1] is 25 nM; in experiment [2] it was 210 nM.
`CCc1c(N)ncnc1N1CCC(c2nc(-c3ccc(F)cc3)cn2CCN2CCCC2)CC1` [Compound 232]: the IC50 stood at 2.3 nM in experiment [1] and 20 nM in experiment [2].
For `CN(C)CCn1cc(-c2ccc(F)c(C(F)(F)F)c2)nc1C1CCN(c2ncnc(N)c2-c2ccncc2)CC1` [Compound 69, 6-{4-[1-(2-Dimethylamino-ethyl)-4-(4-fluoro-3-trifluoromethyl-phenyl)-1H-imidazol-2-yl]-piperidin-1-yl}-5-pyridin-4-yl-pyrimidin-4-ylamine], the IC50 in experiment [1] is 3 nM; in experiment [2] it was 43 nM.
For `CCc1c(N)ncnc1N1CCC(c2nc(-c3ccnc(C(F)(F)F)c3)cn2CCN2CCC2)CC1` [Compound 105, 6-(4-(1-(2-(azetidin-1-yl)ethyl)-4-(2-(trifluoromethyl)pyridin-4-yl)-1H-imidazol-2-yl)piperidin-1-yl)-5-ethylpyrimidin-4-amine], in that order: 2.7 nM and 13 nM.
For the molecule `CCc1c(N)ncnc1N1CCC(c2nc(-c3ccc(F)c(C(F)(F)F)c3)cn2CCN2CCCCC2)CC1` [Compound 276], the half-inhibitory concentration (IC50) in experiment [1] stood at 2.8 nM; in experiment [2] it was 9.3 nM.
On to `CCc1c(N)ncnc1N1CCC(c2nc(-c3ccnc(C)c3)cn2CCN2CCC2)CC1` [Compound 111, 6-(4-(1-(2-(azetidin-1-yl)ethyl)-4-(2-methylpyridin-4-yl)-1H-imidazol-2-yl)piperidin-1-yl)-5-ethylpyrimidin-4-amine], for which the IC50 is 8.7 nM in experiment [1] and 106 nM in experiment [2].
Take `CC(=O)Nc1c(N)ncnc1N1CCC(c2nc(-c3ccc(F)c(C(F)(F)F)c3)cn2CCN2CCC2)CC1` [Compound 288]: the IC50 in experiment [1] was 21 nM; in experiment [2], 190 nM.
Consider `Nc1ncnc(N2CCC(c3nc(-c4ccc(F)cc4)cn3CCN3CCCC3)CC2)c1Cl` [Compound 237], for which the IC50 in experiment [1] was 0.8 nM; in experiment [2], 3.3 nM.
Turning to `CN(C)CCn1cc(-c2ccc(F)c(C(F)(F)F)c2)nc1C1CCN(c2ncnc(N)c2CCC2CC2)CC1` [Compound 83, 5-(2-Cyclopropylethyl)-6-(4-(1-(2-(dimethylamino)ethyl)-4-(4-fluoro-3-(trifluoromethyl)phenyl)-1H-imidazol-2-yl)piperidin-1-yl)pyrimidin-4-amine], the IC50 in experiment [1] worked out at 20 nM; in experiment [2] it was 190 nM.
In the same order, the values of `Nc1ncnc(N2CCC(c3nc(-c4ccc(F)c(C(F)(F)F)c4)cn3CCN3CCC3)CC2)c1-c1ccc(F)cc1` [Compound 219] are 2.4 nM and 2.3 nM.
